These results are taken from patent US20090012119A1, “FLUOROALKYLPYRROLIDINE DERIVATIVE” (DAIICHI SANKYO COMPANY LIMITED, priority 2005, published 2009).

Data set [1] relates to S. maltophilia, IID-1275. As to the kind of experiment: Antibacterial activity (MIC), standard method of Japanese Society of Chemotherapy. It counts as cell-based. The note with it: Stenotrophomonas maltophilia, IID1275. From the text:
(§1) MIC value is also shown for levofloxacin (LVFX), ciprofloxacin (CPFX), and Comparative Compound (compound of Example 1 in the Patent Document 1) for comparison with the MIC value of the compound of the present invention.

The test system of data set [2] is Pr. mirabilis, IFO-3849. Described as above. In kind it is cell-based. The note with it: Proteus mirabilis, IFO3849.
Source text: as §1

Data set [3] relates to E. coli, NIHJ. Described as above. To be noted: Escherichia coli. It counts as cell-based.
Source text: as §1

Data set [4] deals with Str. pyogenes, G-36. The data set is described as above. It counts as cell-based. To be noted: Streptococcus pyogenes, G36.
Source text: as §1

In data set [5] the test system is Str. faecalis, ATCC-19433. The description is as above. In kind it is cell-based. The note with it: Enterococcus faecalis, ATCC19433.
Source text: as §1

Data set [6] concerns S. flexneri, 2A 5503. The description is as above. The note with it: Shigella flexneri, 2A5503. It counts as cell-based.
Source text: as §1

Data set [7] deals with Ser. marcescens, 10100. The data set is described as above. In kind it is cell-based. To be noted: Serratia marcescens.
Source text: as §1

The test system of data set [8] is S. aureus, 209P. The description is as above. It counts as cell-based. The note with it: Staphylococcus aureus.
Source text: as §1

In data set [9] the test system is S. pneumoniae, J24. The data set is described as above. It counts as cell-based. To be noted: Streptococcus pneumoniae, J24: penicillin resistant pneumococcus (moderate resistance).
Source text: as §1

In data set [10] the test system is S. epidermidis, 56500. The data set is described as above. The note with it: Staphylococcus epidermidis. It counts as cell-based.
Source text: as §1

Data set [11] deals with Ps. aeruginosa, 32104. Described as above. The note with it: Pseudomonas aeruginosa. It counts as cell-based.
Source text: as §1

Data set [12] relates to S. aureus, 870307. The description is as above. In kind it is cell-based. The note with it: 870307: levofloxacin-resistant methicillin-resistant Staphylococcus aureus.
Source text: as §1

For data set [13], the system named is Ps. aeruginosa, 32121. The description is as above. It counts as cell-based. To be noted: Pseudomonas aeruginosa.
Source text: as §1

The subject of data set [14] is Pr. vulgaris, 08601. Described as above. In kind it is cell-based. To be noted: Proteus vulgaris.
Source text: as §1

The test system of data set [15] is 6 week old male Slc:ddY mice. As to the kind of experiment: Single dose toxicity test, intravenous injection. In kind it is in vivo. The protocol: The compounds of the present invention were evaluated for their toxicity in a single dose toxicity test by administering the compounds to 6 week old male Slc:ddY mice. The compound was diluted with 0.1 mol/l NaOH/physiological saline, and filtered through Millex GS filter (0.22 μm) for sterilization. The compound was administered at a rate of 10 ml/kg and 0.2 ml/min in a single dose by intravenous injection. The compound of Example 1 in the Patent Document 1 was used for the Comparative Compound as in the case of Test Example 1.

Values after ≈ are worked out from the molar mass of the structure shown.

For the compound `Cc1c(N2C[C@@H](N)[C@@H](C(F)F)C2)c(F)cc2c(=O)c(C(=O)O)cn([C@@H]3C[C@@H]3F)c12` [Compound No. 6, 7-[(3S,4S)-3-amino-4-difluoromethylpyrrolidine-1-yl]-6-fluoro-1-[(1R,2S)-2-fluorocyclopropyl]-8-methyl-1,4-dihydro-4-oxoquinoline-3-carboxylic acid], the melting point fell in the range of 214 to 216 °C. In data set [1], this compound returned an MIC of 0.05 mg/L (≈ 0.121 µM). In data set [2], this compound registered an MIC of 0.012 mg/L (≈ 0.029 µM). For the same compound, the MIC in data set [3] was not above 0.003 mg/L. This compound also had an MIC in [4] of 0.05 mg/L (≈ 0.121 µM). The compound further came in with an MIC in [5] of 0.1 mg/L (≈ 0.242 µM). In data set [6], this compound showed an MIC not above 0.003 mg/L. Further, inhibition of growth in data set [7] (MIC) required 0.05 mg/L (≈ 0.121 µM). In data set [8], this compound displayed an MIC of 0.012 mg/L (≈ 0.029 µM). Also, in [9], the MIC came to 0.05 mg/L (≈ 0.121 µM). The compound also yielded an MIC in data set [10] of 0.025 mg/L (≈ 0.0605 µM). This compound had an MIC in [11] of 0.2 mg/L (≈ 0.484 µM). Also, inhibition of growth in [12] (MIC) required 0.2 mg/L (≈ 0.484 µM). Moreover, in data set [13], the MIC worked out at 0.05 mg/L (≈ 0.121 µM). In [14], this compound had an MIC of 0.006 mg/L (≈ 0.0145 µM).
With `CN[C@@H]1CN(c2c(F)cc3c(=O)c(C(=O)O)cn([C@@H]4C[C@@H]4F)c3c2C)C[C@@H]1CF` [Compound No. 4, 7-[(3S,4S)-3-fluoromethyl-4-methylaminopyrrolidine-1-yl]-6-fluoro-1-[(2S,1R)-2-fluorocyclopropyl]-1,4-dihydro-8-methyl-4-oxoquinoline-3-carboxylic acid], the MIC in data set [1] was 0.1 mg/L (≈ 0.244 µM); in data set [2], 0.025 mg/L (≈ 0.0611 µM); in [3], not above 0.003 mg/L; in data set [4], 0.1 mg/L (≈ 0.244 µM); in [5] it was 0.1 mg/L (≈ 0.244 µM); in data set [6], 0.006 mg/L (≈ 0.0147 µM). Also, the MIC in data set [7] was found to be 0.05 mg/L (≈ 0.122 µM); in [8] it was 0.012 mg/L (≈ 0.0293 µM); in data set [9], 0.05 mg/L (≈ 0.122 µM); in data set [10] it was 0.05 mg/L (≈ 0.122 µM); in data set [11], 0.1 mg/L (≈ 0.244 µM); in [12] it was 0.39 mg/L (≈ 0.953 µM). Besides, the MIC in data set [13] was 0.05 mg/L (≈ 0.122 µM); in data set [14] it was 0.006 mg/L (≈ 0.0147 µM). Besides, the “Number of dead mice/Total” value in data set [15] (Dose 100 mg/kg) was 0/5; in data set [15] (Dose 150 mg/kg), 1/2.
The compound `CN[C@@H]1CN(c2c(F)cc3c(=O)c(C(=O)O)cn(C4CC4)c3c2C)C[C@@H]1CF` [Compound No. 5, 1-cyclopropyl-6-fluoro-7-[(3S,4S)-3-fluoromethyl-4-methylaminopyrrolidine-1-yl]-8-methyl-1,4-dihydro-4-oxoquinoline-3-carboxylic acid] came in with a melting point of 156 to 158 °C. The same compound had an MIC in data set [1] of 0.05 mg/L (≈ 0.128 µM). The MIC in data set [2] was 0.025 mg/L (≈ 0.0639 µM). Also, in [3], the MIC was not above 0.003 mg/L. Moreover, the MIC in data set [4] was found to be 0.1 mg/L (≈ 0.255 µM). The compound further came in with an MIC in data set [5] of 0.1 mg/L (≈ 0.255 µM). Further, the MIC in [6] was not above 0.003 mg/L. The same compound returned an MIC in data set [7] of 0.05 mg/L (≈ 0.128 µM). For the same compound, the MIC in data set [8] amounted to 0.012 mg/L (≈ 0.0307 µM). This compound returned an MIC in data set [9] of 0.05 mg/L (≈ 0.128 µM). Also, the MIC in [10] was 0.05 mg/L (≈ 0.128 µM). In addition, the MIC in [11] amounted to 0.2 mg/L (≈ 0.511 µM). The same compound showed an MIC in data set [12] of 0.39 mg/L (≈ 0.996 µM). The MIC in data set [13] turned out to be 0.05 mg/L (≈ 0.128 µM). Further, in data set [14], the MIC was 0.006 mg/L (≈ 0.0153 µM).
`C[C@H]1COc2c(N3CCN(C)CC3)c(F)cc3c(=O)c(C(=O)O)cn1c23` [LVFX, levofloxacin, reference compound]: the MIC in data set [1] is 0.39 mg/L (≈ 1.08 µM); in [2] it was 0.05 mg/L (≈ 0.138 µM); in data set [3], 0.012 mg/L (≈ 0.0332 µM); in [4], 0.78 mg/L (≈ 2.16 µM); in [5] it was 0.78 mg/L (≈ 2.16 µM); in [6] it was 0.025 mg/L (≈ 0.0692 µM). Also, the MIC is 0.1 mg/L (≈ 0.277 µM) in [7]; 0.2 mg/L (≈ 0.553 µM) in data set [8]; 0.78 mg/L (≈ 2.16 µM) in data set [9]; 0.39 mg/L (≈ 1.08 µM) in data set [10]; 0.2 mg/L (≈ 0.553 µM) in [11]; more than 6.25 mg/L in [12]. The MIC worked out at 0.1 mg/L (≈ 0.277 µM) in data set [13] and 0.012 mg/L (≈ 0.0332 µM) in data set [14].
As to `COc1c(N2C[C@H](CF)[C@H](N)C2)c(F)cc2c(=O)c(C(=O)O)cn(C3C[C@@H]3F)c12` (stereo partly shown) [Comparative Compound, reference compound], the MIC in data set [1] was 0.2 mg/L (≈ 0.486 µM); in data set [2], 0.025 mg/L (≈ 0.0608 µM); in data set [3] it was not above 0.003 mg/L; in data set [4], 0.1 mg/L (≈ 0.243 µM); in [5] it was 0.1 mg/L (≈ 0.243 µM); in data set [6] it was 0.006 mg/L (≈ 0.0146 µM). Further, the MIC in [7] came to 0.05 mg/L (≈ 0.122 µM); in [8], 0.012 mg/L (≈ 0.0292 µM); in data set [9], 0.025 mg/L (≈ 0.0608 µM); in data set [10], 0.05 mg/L (≈ 0.122 µM); in data set [11] it was 0.2 mg/L (≈ 0.486 µM); in data set [12], 0.2 mg/L (≈ 0.486 µM). Also, the values for the MIC in data set [13] and in data set [14] were 0.05 mg/L (≈ 0.122 µM) and 0.012 mg/L (≈ 0.0292 µM), respectively. Further, the results for the “Number of dead mice/Total” value in data set [15] (Dose 100 mg/kg) and in data set [15] (Dose 150 mg/kg) were 1/5 and 2/3, respectively.

Usually MIC stands for the least concentration at which growth counts as inhibited. The low end stands for greater potency, the high end for weaker potency. One may read the melting point as the temperature, or range, at which the solid turns liquid.
